Reference: PubChem BioAssay (NCI)
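Each compound was tested at five concentrations against cells in 96-well plates for 48 hours. Here, GI50 denotes the concentration required for 50% inhibition of growth. At the TGI there is no net growth.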

Columns and labels:
Experiment in all cases: NCI-60 cell line screen, 48 h
A549 NSCLC = test system: A549 NSCLC
CCRF-CEM leukemia = test system: CCRF-CEM leukemia
HCC-2998 colon = test system: HCC-2998 colon
HCT-116 colon = test system: HCT-116 colon
HCT-15 colon = test system: HCT-15 colon
HL-60(TB) leukemia = test system: HL-60(TB) leukemia
OVCAR-4 ovarian = test system: OVCAR-4 ovarian
OVCAR-8 ovarian = test system: OVCAR-8 ovarian
SF-295 CNS = test system: SF-295 CNS
SK-OV-3 ovarian = test system: SK-OV-3 ovarian

C=C1C(=O)O[C@H]2[C@H]1CC/C(Cn1cc(CCC)nn1)=C\CC[C@@]1(C)O[C@@H]21
GI50 (A549 NSCLC): 22.3 µM | TGI (A549 NSCLC): 44.3 µM | GI50 (CCRF-CEM leukemia): 3 µM | TGI (CCRF-CEM leukemia): 9.71 µM | GI50 (HCC-2998 colon): 15.1 µM | TGI (HCC-2998 colon): 32.9 µM | GI50 (HCT-116 colon): 3.98 µM | TGI (HCT-116 colon): 14.4 µM | GI50 (HCT-15 colon): 2.9 µM | TGI (HCT-15 colon): 12.3 µM | GI50 (HL-60(TB) leukemia): 3.53 µM | TGI (HL-60(TB) leukemia): 15.3 µM | GI50 (OVCAR-4 ovarian): 9.46 µM | TGI (OVCAR-4 ovarian): 22.7 µM | GI50 (OVCAR-8 ovarian): 13.5 µM | TGI (OVCAR-8 ovarian): 29.8 µM | GI50 (SF-295 CNS): 18.5 µM | TGI (SF-295 CNS): 39.2 µM | GI50 (SK-OV-3 ovarian): 26 µM | TGI (SK-OV-3 ovarian): 68.5 µM

COC(=O)c1c(-c2ccccc2)csc1NC(=O)c1c(-c2ccccc2)noc1C
GI50 (A549 NSCLC): 0.568 µM | TGI (A549 NSCLC): > 100 µM | GI50 (CCRF-CEM leukemia): 1.77 µM | TGI (CCRF-CEM leukemia): > 100 µM | GI50 (HCC-2998 colon): > 21 µM | TGI (HCC-2998 colon): > 100 µM | GI50 (HCT-116 colon): 0.379 µM | TGI (HCT-116 colon): > 100 µM | GI50 (HCT-15 colon): 0.0809 µM | TGI (HCT-15 colon): > 100 µM | GI50 (HL-60(TB) leukemia): 1.32 µM | TGI (HL-60(TB) leukemia): > 100 µM | GI50 (OVCAR-4 ovarian): 5.38 µM | TGI (OVCAR-4 ovarian): > 100 µM | GI50 (OVCAR-8 ovarian): 0.776 µM | TGI (OVCAR-8 ovarian): > 100 µM | GI50 (SF-295 CNS): 0.598 µM | TGI (SF-295 CNS): > 21.5 µM | GI50 (SK-OV-3 ovarian): 3.08 µM | TGI (SK-OV-3 ovarian): > 100 µM

CCCCOC(=O)N[C@H]1CCc2cc(OC)c(OC)c(OC)c2-c2ccc(SC)c(=O)cc21
TGI (A549 NSCLC): 98.9 µM | TGI (CCRF-CEM leukemia): 35.8 µM | TGI (HCC-2998 colon): 2.29 µM | TGI (HCT-116 colon): 1.18 µM | TGI (HCT-15 colon): > 15.8 µM | TGI (HL-60(TB) leukemia): 0.398 µM | TGI (OVCAR-4 ovarian): > 96.5 µM | TGI (OVCAR-8 ovarian): 12.7 µM | TGI (SF-295 CNS): < 0.0361 µM | TGI (SK-OV-3 ovarian): 7.24 µM

O=C1c2cccc3cccc(c23)C(=O)N1CCCCOc1ccc(-c2nc3ccc(N4CCOCC4)cc3[nH]2)cc1
GI50 (A549 NSCLC): 3.77 µM | TGI (A549 NSCLC): > 84.4 µM | GI50 (CCRF-CEM leukemia): 2.91 µM | TGI (CCRF-CEM leukemia): > 28.2 µM | GI50 (HCC-2998 colon): 5.25 µM | TGI (HCC-2998 colon): > 47.8 µM | GI50 (HCT-116 colon): 1.76 µM | TGI (HCT-116 colon): 3.32 µM | GI50 (HCT-15 colon): 2.14 µM | TGI (HCT-15 colon): 8.01 µM | GI50 (HL-60(TB) leukemia): 2.29 µM | TGI (HL-60(TB) leukemia): 4.55 µM | GI50 (OVCAR-4 ovarian): 1.8 µM | TGI (OVCAR-4 ovarian): 4.08 µM | GI50 (OVCAR-8 ovarian): 6.21 µM | TGI (OVCAR-8 ovarian): > 75.1 µM | GI50 (SF-295 CNS): 1.63 µM | GI50 (SK-OV-3 ovarian): 31.2 µM | TGI (SK-OV-3 ovarian): > 54 µM

N#CC(C#N)=C1NC(=O)C(c2ccccc2)C(=O)N1 (centres undefined)
TGI (A549 NSCLC): > 100 µM | TGI (CCRF-CEM leukemia): > 100 µM | TGI (HCC-2998 colon): > 100 µM | TGI (HCT-116 colon): > 100 µM | TGI (HCT-15 colon): > 100 µM | TGI (HL-60(TB) leukemia): > 100 µM | TGI (OVCAR-4 ovarian): > 100 µM | TGI (OVCAR-8 ovarian): > 100 µM | TGI (SF-295 CNS): > 100 µM | TGI (SK-OV-3 ovarian): > 100 µM
